Measured values reported in patent US20260158017A1, “KIF18A INHIBITOR” (WIGEN BIOMEDICINE TECHNOLOGY (SHANGHAI) CO., LTD., priority 2021, published 2026).

Target: T1, Recombinant human KIF18A (1-467His-tagged) protein (Homo sapiens, UniProt Q8NI77)
T1 construct: Recombinant human KIF18A (1-467His-tagged) protein; His; made in house
Experiment: KIF18A enzyme assay (microtubule-stimulated ATPase activity, ADP-Glo)
Format: biochemical
Conditions: 30 nM KIF18A, 75 μM ATP, 30 μg/mL pig microtubules; read-out: Inhibitory activity against KIF18A IC50
Procedure, shortened: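 Buffer 15 mM Tris pH 7.5, 10 mM MgCl2, 0.01% Pluronic F-68, 1 μM paclitaxel, 30 μg/mL pig microtubules; reactions at room temperature. IC50 from inhibition relative to DMSO.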

T1 sequence (Q8NI77 1-467): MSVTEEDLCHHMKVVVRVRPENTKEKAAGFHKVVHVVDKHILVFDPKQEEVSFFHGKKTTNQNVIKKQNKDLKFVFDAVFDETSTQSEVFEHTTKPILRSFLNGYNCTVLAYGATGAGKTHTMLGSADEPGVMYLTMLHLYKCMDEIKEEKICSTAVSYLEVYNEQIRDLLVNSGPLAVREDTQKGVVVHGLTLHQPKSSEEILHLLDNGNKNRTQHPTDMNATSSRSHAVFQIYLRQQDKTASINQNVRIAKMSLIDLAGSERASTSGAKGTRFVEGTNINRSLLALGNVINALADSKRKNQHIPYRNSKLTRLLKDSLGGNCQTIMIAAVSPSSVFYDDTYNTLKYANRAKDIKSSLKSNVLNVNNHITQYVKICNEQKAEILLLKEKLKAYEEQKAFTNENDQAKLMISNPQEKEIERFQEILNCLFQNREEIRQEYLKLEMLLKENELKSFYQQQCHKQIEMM
T1 sequence (P02550 whole entry partner): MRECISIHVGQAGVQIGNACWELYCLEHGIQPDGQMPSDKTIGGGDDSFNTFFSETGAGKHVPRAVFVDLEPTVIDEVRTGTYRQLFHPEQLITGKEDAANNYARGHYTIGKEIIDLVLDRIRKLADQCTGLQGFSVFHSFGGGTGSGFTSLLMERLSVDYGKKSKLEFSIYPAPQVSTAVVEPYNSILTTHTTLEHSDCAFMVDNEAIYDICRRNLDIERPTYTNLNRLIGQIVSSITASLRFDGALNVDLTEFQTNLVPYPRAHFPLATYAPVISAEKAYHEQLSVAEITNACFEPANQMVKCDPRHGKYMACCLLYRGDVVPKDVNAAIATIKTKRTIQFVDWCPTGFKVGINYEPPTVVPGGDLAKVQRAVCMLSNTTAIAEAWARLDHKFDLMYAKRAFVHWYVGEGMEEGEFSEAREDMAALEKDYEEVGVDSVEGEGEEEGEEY
T1 sequence (P02554 whole entry partner): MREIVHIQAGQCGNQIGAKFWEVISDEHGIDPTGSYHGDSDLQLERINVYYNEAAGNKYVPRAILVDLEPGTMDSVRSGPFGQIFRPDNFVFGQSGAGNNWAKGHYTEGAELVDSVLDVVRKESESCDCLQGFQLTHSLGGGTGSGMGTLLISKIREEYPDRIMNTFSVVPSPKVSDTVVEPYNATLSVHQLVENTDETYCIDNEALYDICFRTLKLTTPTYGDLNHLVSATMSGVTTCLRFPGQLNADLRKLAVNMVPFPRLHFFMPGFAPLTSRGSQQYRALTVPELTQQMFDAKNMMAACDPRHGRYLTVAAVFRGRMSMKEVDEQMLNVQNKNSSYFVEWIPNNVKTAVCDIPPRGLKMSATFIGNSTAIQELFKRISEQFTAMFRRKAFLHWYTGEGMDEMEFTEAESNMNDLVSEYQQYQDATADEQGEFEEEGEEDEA

Structure (SMILES)	IC50
COc1ccc(C(=O)Nc2cnc(NS(=O)(=O)[C@H](C)CO)cc2N2CCC3(CC2)CC3)nc1N1CCC(F)(F)CC1 [Compound 366]	≤ 100 nM
COc1ccc(NC(=O)c2cnc(S(=O)(=O)NCCO)cc2N2CCC3(CC2)CC3)nc1NC(C)(C)CO [Compound 315]	≤ 100 nM
C[C@@H](CO)NS(=O)(=O)c1ccc(C(=O)Nc2ccc([N+](=O)[O-])c(N3CCC(F)(F)CC3)n2)c(N2CCC3(CC2)CC3)c1 [Compound 93]	≤ 100 nM
O=C(Nc1ccc([N+](=O)[O-])c(N2CCOCC2)c1)c1cnc(NS(=O)(=O)CCO)cc1N1CCC2(CC1)CC2 [Compound 108]	≤ 100 nM
O=C(Nc1cnc(NS(=O)(=O)CCO)cc1N1CCC2(CC1)CC2)c1ccc([N+](=O)[O-])c(OC2CCC2)c1 [Compound 199]	≤ 100 nM
O=C(Nc1cnc(NS(=O)(=O)CCO)cc1N1CCC2(CC1)CC2)c1ccc([N+](=O)[O-])c(N2CC(F)(F)C2)c1 [Compound 196]	≤ 100 nM
COc1ccc(C(=O)Nc2cnc(S(=O)(=O)N[C@@H](C)CO)cc2N2CCC3(CC2)CC3)nc1N1CCO[C@H](C)C1 [Compound 383]	≤ 100 nM
C[C@H](CO)S(=O)(=O)Nc1ccc(NC(=O)c2ccc([N+](=O)[O-])c(N3CCC(F)(F)CC3)c2)c(N2CCC3(CC2)CC3)c1 [Compound 46]	100 to 500 nM
O=C(Nc1cnc(S(=O)(=O)NCCO)cc1N1CCC2(CC1)CC2)c1ccc([N+](=O)[O-])c(N2CCC(F)CC2)c1 [Compound 217]	100 to 500 nM
COc1ccc(NC(=O)c2cnc(S(=O)(=O)N[C@H](C)CO)cc2N2CCC3(CC2)CC3)nc1N1CCC(F)(F)CC1 [Compound 318]	≤ 100 nM
CC1(F)CCN(c2nc(C(=O)Nc3ccc(NS(=O)(=O)CCO)cc3N3CCC4(CC3)CC4)ccc2[N+](=O)[O-])C1 (stereo not shown) [Compound 168]	≤ 100 nM
O=C(Nc1cnc(NS(=O)(=O)CCO)cc1N1CCC2(CC1)CC2)c1ccc([N+](=O)[O-])c(OCCC(F)(F)F)c1 [Compound 197]	≤ 100 nM
COc1ccc(C(=O)Nc2cnc(S(=O)(=O)NCCO)cc2N2CCC3(CC2)CC3)nc1N1CCO[C@H](C)C1 [Compound 370]	≤ 100 nM
CC1(F)CCN(c2nc(NC(=O)c3ccc(NS(=O)(=O)CCO)cc3N3CCC4(CC3)CC4)ccc2OCF)C1 (stereo not shown) [Compound 424]	≤ 100 nM

The remaining lines, values ahead:

IC50	Structure (SMILES)
≤ 100 nM	O=C(Nc1ccc(OCF)c(N2CC3CC3C2)n1)c1ccc(NS(=O)(=O)CCO)cc1N1CCC2(CC1)CC2 (stereo not shown) [Compound 426]
≤ 100 nM	C[C@@H]1CN(c2cc(NC(=O)c3cnc(NS(=O)(=O)CCO)cc3N3CCC4(CC3)CC4)ccc2OCF)CCO1 [Compound 450]
≤ 100 nM	CSc1ccc(NC(=O)c2cnc(NS(=O)(=O)CCO)cc2N2CCC3(CC2)CC3)cc1N1CCO[C@H](C)C1 [Compound 610]
≤ 100 nM	C[C@@H](CO)NS(=O)(=O)c1cc(N2CCC3(CC2)CC3)c(C(=O)Nc2ccc(OCF)c(N3CCC(F)(F)CC3)c2)cn1 [Compound 477]
≤ 100 nM	C[C@@H]1CN(c2nc(NC(=O)c3cnc(NS(=O)(=O)[C@@H](C)CO)cc3N3CCC4(CC3)CC4)ccc2OCF)CCO1 [Compound 495]
≤ 100 nM	O=C(Nc1ccc(OCF)c(N2CC(F)(F)C2)n1)c1ccc(S(=O)(=O)NCCO)cc1N1CCC2(CC1)CC2 [Compound 436]
≤ 100 nM	C[C@H]1CN(c2nc(NC(=O)c3ccc(S(=O)(=O)NCCO)cc3N3CCC4(CC3)CC4)ccc2OCF)CCO1 [Compound 435]
≤ 100 nM	O=C(Nc1ccc(OCF)c(OCCC(F)(F)F)n1)c1ccc(S(=O)(=O)NCCO)cc1N1CCC2(CC1)CC2 [Compound 437]
100 to 500 nM	O=C(Nc1ccc(S(=O)(=O)NCCO)cc1N1CCC2(CC1)CC2)c1ccc(OCF)c(N2CC3CC3C2)c1 (stereo not shown) [Compound 538]
≤ 100 nM	C[C@H](CO)S(=O)(=O)Nc1ccc(NC(=O)c2ccc(OCF)c(N3CCC(F)(F)CC3)n2)c(N2CCC3(CC2)CC3)c1 [Compound 558]
≤ 100 nM	CSc1ccc(NC(=O)c2cnc(NS(=O)(=O)CCO)cc2N2CCC3(CC2)CC3)nc1NC(C)(C)CO [Compound 635]
